Data reported in US12240816B2, “Deuterated compounds and uses thereof” (Aldeyra Therapeutics, Inc., priority 2015, dated 2025).
“And” between values parts separate entries of the source, which are not always exact repeats. Identical values can stand only once. “Also recorded” adds a separate entry of the source.

Legend:
[1] = biological target: enzyme and uptake assay panel targets (Table 36) (Homo sapiens, UniProt O00408); assay: biochemical; assay type: biochemical; settings: PDE2A1 (h); reference compound
rat hippocampal cultures [2] = assay: Propidium iodide cell death assay, protection from hydrogen peroxide toxicity; assay type: cell-based; settings: DMSO; for Cell death (Propidium Iodide), % of Control / Cell death (Propidium Iodide), Mean / Cell death (Propidium Iodide), individual values: 5 hours
rat hippocampal cultures [3] = assay: cells; assay type: cell-based; settings: DMSO
PR (h) = biological target: T1, PR (h) (Homo sapiens, UniProt P06401); assay: PR (h) (agonist radioligand) binding assay
T1 construct: T47D cells (cytosol)
T1 sequence (P06401 679-933): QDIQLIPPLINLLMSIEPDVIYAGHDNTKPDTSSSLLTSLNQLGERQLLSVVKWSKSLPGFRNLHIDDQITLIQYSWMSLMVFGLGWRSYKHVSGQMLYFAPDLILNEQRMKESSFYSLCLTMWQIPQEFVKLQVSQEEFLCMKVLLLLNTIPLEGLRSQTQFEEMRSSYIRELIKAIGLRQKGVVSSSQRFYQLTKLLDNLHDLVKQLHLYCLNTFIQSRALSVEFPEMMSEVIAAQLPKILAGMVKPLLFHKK

5-HT2B (h) = 5-HT2B (h) (Homo sapiens, UniProt P41595); assay: 5-HT2B (h) (agonist radioligand) binding assay
[4] = Example 13, PI, 10 μM hydrogen peroxide, 5 h, 0.1 to 300 μM tested
[5] = Example 13, CFDA, 10 μM hydrogen peroxide, 5 h, 0.1 to 300 μM tested
[6] = 0.1 μM + 10 μM hydrogen peroxide
[7] = 10 μM + 10 μM hydrogen peroxide
[8] = 100 μM + 10 μM hydrogen peroxide
[9] = 300 μM + 10 μM hydrogen peroxide
[10] = 0.1 μM + 10 μM hydrogen peroxide, 5 hours
[11] = 1 μM + 10 μM hydrogen peroxide, 5 hours
[12] = 10 μM + 10 μM hydrogen peroxide, 5 hours
[13] = 100 μM + 10 μM hydrogen peroxide, 5 hours
[14] = 300 μM + 10 μM hydrogen peroxide, 5 hours

Sequence of 5-HT2B (h) (P41595 whole entry): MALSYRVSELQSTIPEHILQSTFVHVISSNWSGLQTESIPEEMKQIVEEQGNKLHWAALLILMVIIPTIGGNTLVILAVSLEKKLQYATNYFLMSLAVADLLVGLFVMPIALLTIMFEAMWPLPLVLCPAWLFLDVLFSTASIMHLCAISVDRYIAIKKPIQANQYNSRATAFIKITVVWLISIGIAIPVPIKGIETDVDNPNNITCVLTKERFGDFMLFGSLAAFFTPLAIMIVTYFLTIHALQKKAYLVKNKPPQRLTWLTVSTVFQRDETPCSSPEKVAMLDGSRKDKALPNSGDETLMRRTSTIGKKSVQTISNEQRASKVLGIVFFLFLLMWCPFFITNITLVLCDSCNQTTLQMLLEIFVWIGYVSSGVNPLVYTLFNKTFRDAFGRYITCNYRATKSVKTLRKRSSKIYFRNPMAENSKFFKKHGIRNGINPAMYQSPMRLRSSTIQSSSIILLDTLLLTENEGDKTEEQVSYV
Sequence of enzyme and uptake assay panel targets (Table 36) (O00408 whole entry): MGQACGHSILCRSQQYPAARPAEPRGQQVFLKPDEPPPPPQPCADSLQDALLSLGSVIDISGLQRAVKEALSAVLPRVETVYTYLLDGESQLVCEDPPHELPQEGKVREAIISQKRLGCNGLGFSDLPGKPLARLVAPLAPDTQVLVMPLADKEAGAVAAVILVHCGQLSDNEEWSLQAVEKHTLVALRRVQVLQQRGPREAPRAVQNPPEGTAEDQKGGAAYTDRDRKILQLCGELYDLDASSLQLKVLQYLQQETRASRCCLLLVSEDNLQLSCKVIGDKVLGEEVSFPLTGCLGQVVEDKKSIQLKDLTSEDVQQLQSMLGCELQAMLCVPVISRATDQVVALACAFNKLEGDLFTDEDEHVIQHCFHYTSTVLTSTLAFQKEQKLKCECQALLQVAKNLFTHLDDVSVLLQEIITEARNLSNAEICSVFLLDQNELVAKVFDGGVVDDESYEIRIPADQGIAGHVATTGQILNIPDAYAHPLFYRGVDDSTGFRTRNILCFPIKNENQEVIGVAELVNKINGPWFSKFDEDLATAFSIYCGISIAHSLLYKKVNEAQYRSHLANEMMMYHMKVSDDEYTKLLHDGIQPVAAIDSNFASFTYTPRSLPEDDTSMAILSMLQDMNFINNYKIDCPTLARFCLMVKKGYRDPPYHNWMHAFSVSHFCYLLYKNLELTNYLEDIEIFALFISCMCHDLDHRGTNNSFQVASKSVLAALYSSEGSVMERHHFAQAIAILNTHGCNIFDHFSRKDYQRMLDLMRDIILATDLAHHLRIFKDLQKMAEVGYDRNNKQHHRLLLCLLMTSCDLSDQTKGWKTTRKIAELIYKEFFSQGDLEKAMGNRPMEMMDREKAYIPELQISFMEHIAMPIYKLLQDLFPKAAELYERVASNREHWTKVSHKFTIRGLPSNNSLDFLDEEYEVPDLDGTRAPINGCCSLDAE

SMILES	Cell death (Propidium Iodide), % of Control (rat hippocampal cultures [2]; [6]) [%]	Cell death (Propidium Iodide), Mean (rat hippocampal cultures [2]; [6])	Cell death (Propidium Iodide), individual values (rat hippocampal cultures [2]; [6])	Cell death (Propidium Iodide), % of Control (rat hippocampal cultures [2]; 1 μM + 10 μM hydrogen peroxide) [%]	Cell death (Propidium Iodide), Mean (rat hippocampal cultures [2]; 1 μM + 10 μM hydrogen peroxide)	Cell death (Propidium Iodide), individual values (rat hippocampal cultures [2]; 1 μM + 10 μM hydrogen peroxide)	Cell death (Propidium Iodide), % of Control (rat hippocampal cultures [2]; [7]) [%]	Cell death (Propidium Iodide), Mean (rat hippocampal cultures [2]; [7])	Cell death (Propidium Iodide), individual values (rat hippocampal cultures [2]; [7])	Cell death (Propidium Iodide), % of Control (rat hippocampal cultures [2]; [8]) [%]	Cell death (Propidium Iodide), Mean (rat hippocampal cultures [2]; [8])	Cell death (Propidium Iodide), individual values (rat hippocampal cultures [2]; [8])	Cell death (Propidium Iodide), % of Control (rat hippocampal cultures [2]; [9]) [%]	Cell death (Propidium Iodide), Mean (rat hippocampal cultures [2]; [9])	Cell death (Propidium Iodide), individual values (rat hippocampal cultures [2]; [9])	Neuronal viability (CFDA), % of Control (rat hippocampal cultures [3]; [10]) [%]	Neuronal viability (CFDA), Mean (rat hippocampal cultures [3]; [10])	Neuronal viability (CFDA), % of Control (rat hippocampal cultures [3]; [11]) [%]	Neuronal viability (CFDA), Mean (rat hippocampal cultures [3]; [11])	Neuronal viability (CFDA), % of Control (rat hippocampal cultures [3]; [12]) [%]	further results
CCCCCC[C@@H]([C@@H](C)O)n1cnc2c(N)ncnc21 (racemic) [EHNA]	–	–	–	–	–	–	–	–	–	–	–	–	–	–	–	–	–	–	–	–	IC50 [1]: 1100 nM; nH [1]: 0.8
CC(C)(O)c1nc2ccccc2nc1N [ALD-2]	–	–	–	–	–	–	–	–	–	–	–	–	–	–	–	–	–	–	–	–	EC50 ± SE (rat hippocampal cultures [2]; [4]): Inactive; Full Efficacy Concentration (rat hippocampal cultures [2]; [4]): Inactive; No effect Concentration (rat hippocampal cultures [2]; [4]): Inactive; protection from cell death (rat hippocampal cultures [2]; PI, 0.1 to 300 μM, 10 μM hydrogen peroxide, 5 h): no statistically significant protection from cell death; also recorded: did not produce statistically significant protection from cell death; EC50 ± SE (rat hippocampal cultures [3]; [5]): Inactive; Full Efficacy Concentration (rat hippocampal cultures [3]; [5]): Inactive; No effect Concentration (rat hippocampal cultures [3]; [5]): Inactive
CC(C)(O)c1nc2ccccc2nc1N [ALD2]	172 ± 5	274	258 and 294 (2×) and 259 and 266	166 ± 9	264	229 and 294 and 258 and 242 and 298	167 ± 13	266	293 and 329 and 258 and 225 (2×)	157 ± 8	249	225 (2×) and 258 and 242 and 294	182 ± 8	290	302 and 294 (2×) and 320 and 242	67 ± 3	38243	67 ± 4	38073	71 ± 5	Neuronal viability (CFDA), individual values (rat hippocampal cultures [3]; [10]): 40839 (3×) and 34813 and 33885; Neuronal viability (CFDA), Mean (rat hippocampal cultures [3]; [12]): 40512; Neuronal viability (CFDA), % of Control (rat hippocampal cultures [3]; [13]): 68 ± 4%; Neuronal viability (CFDA), Mean (rat hippocampal cultures [3]; [13]): 38674; Neuronal viability (CFDA), % of Control (rat hippocampal cultures [3]; [14]): 72 ± 4%; Neuronal viability (CFDA), Mean (rat hippocampal cultures [3]; [14]): 41274
CCC(=O)[C@@]1(C)CC[C@H]2[C@@H]3CCC4=CC(=O)CCC4=C3CC[C@@]21C [promegestone]	–	–	–	–	–	–	–	–	–	–	–	–	–	–	–	–	–	–	–	–	IC50 (PR (h)): 0.47 nM; Ki (PR (h)): 0.38 nM; nH (PR (h)): 1.6
CC(C)(O)c1nc2ncccc2cc1N [ALD5]	202 ± 15	301	225 and 325 and 294 (2×) and 366	196 ± 1	292	285 and 294 (4×)	191 ± 11	285	294 (3×) and 320 and 225	181 ± 7	269	250 (2×) and 294 (2×) and 255	205 ± 8	305	294 (3×) and 293 and 352	69 ± 1	38942	66 ± 3	37447	65 ± 3	Neuronal viability (CFDA), Mean (rat hippocampal cultures [3]; [12]): 36940; Neuronal viability (CFDA), % of Control (rat hippocampal cultures [3]; [13]): 66 ± 4%; Neuronal viability (CFDA), Mean (rat hippocampal cultures [3]; [13]): 37605; Neuronal viability (CFDA), % of Control (rat hippocampal cultures [3]; [14]): 74 ± 1%; Neuronal viability (CFDA), Mean (rat hippocampal cultures [3]; [14]): 42249
COc1cc(CC(C)N)c(OC)cc1I (racemic) [(±)DO1]	–	–	–	–	–	–	–	–	–	–	–	–	–	–	–	–	–	–	–	–	IC50 (5-HT2B (h)): 6.9 nM; nH (5-HT2B (h)): 0.9
